Here are results for nine compounds from PMC12315900, “A twist in the tale: shifting from covalent targeting of a tyrosine in JAK3 to a lysine in MK2” (RSC Medicinal Chemistry, 2025).

Data set [1] can be described thus: solubility observation. The format is physicochemical. An excerpt:
While the warhead now cannot rotate away anymore, it also is very limited in the trajectory it can assume prior to/during the bond-forming event. On the other hand, the tyrosine side chain is also a rather rigid structure (especially considering the degrees of freedom of cysteine or e.g. lysine in comparison) and if two very rigid structures are supposed to react with each other, a proper pre-orientation and a binding mode that enables a strain-free reaction trajectory play a much bigger role than for the reaction of two more flexible moieties like, for example, acrylamide and cysteine.

In data set [2] the target is T1, JAK3 (Homo sapiens, UniProt P52333).
T1 sequence (P52333 1-1124): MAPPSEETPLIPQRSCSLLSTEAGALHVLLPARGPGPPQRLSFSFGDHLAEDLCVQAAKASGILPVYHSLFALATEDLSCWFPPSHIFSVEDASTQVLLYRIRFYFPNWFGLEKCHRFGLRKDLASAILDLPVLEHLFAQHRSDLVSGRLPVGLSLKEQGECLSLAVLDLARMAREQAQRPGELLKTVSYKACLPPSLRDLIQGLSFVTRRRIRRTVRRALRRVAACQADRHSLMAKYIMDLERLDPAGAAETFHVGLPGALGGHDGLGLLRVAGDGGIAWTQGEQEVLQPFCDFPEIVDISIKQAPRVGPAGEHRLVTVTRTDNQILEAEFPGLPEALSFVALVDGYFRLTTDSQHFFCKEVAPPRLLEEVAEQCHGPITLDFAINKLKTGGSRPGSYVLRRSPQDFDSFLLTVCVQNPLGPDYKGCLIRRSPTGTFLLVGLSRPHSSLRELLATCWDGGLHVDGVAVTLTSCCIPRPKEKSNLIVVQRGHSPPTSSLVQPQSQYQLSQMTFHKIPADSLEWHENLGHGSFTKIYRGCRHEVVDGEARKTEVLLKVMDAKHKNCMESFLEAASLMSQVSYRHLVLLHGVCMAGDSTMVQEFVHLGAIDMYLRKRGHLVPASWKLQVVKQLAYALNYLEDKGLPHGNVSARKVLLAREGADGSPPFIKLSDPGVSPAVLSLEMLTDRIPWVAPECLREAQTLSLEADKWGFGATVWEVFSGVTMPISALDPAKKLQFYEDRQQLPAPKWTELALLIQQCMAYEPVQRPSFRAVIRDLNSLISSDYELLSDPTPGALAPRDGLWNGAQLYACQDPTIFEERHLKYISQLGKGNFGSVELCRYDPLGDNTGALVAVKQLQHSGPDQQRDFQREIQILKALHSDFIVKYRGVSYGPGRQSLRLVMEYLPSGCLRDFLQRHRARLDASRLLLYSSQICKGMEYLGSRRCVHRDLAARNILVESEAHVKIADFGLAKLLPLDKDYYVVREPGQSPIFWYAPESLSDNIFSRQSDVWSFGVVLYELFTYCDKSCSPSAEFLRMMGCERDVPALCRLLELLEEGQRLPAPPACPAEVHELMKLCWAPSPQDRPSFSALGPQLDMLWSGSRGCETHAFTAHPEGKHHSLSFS
As to conditions: JAK3 ELISA, same assay conditions (starting at 10 μM). On the technique in general: An ELISA detects its analyte on a solid surface through an enzyme-linked reagent.

In data set [3] the target is T2, MK2 (Homo sapiens, UniProt P49137, DEL216-236/P237G). The data set is described as follows: intact protein MS with MK2 (covalent modification). As to conditions: for covalent modification of MK2 (covalent binding): 5-fold excess compound over MK2, rt, 3 h; for Ratio [%] (AUC[mod]/(AUC[unmod]+AUC[mod])): 50 µM protein, 250 µM compound, room temperature, 3 hours, relative quantification from deconvoluted spectra.
T2 sequence (P49137 with tags, fused parts or gaps DEL216-236/P237G): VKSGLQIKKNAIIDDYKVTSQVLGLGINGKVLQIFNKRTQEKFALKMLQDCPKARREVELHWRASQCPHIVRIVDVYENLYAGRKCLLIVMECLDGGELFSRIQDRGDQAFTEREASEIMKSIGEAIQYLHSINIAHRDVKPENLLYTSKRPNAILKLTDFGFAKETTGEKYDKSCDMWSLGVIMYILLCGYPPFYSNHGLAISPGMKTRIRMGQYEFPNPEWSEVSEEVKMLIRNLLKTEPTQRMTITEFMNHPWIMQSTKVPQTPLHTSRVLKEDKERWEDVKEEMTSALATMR
Method: using a NanoDrop 2000 spectrophotometer (Thermo Scientific), with molar extinction coefficient
and molecular weight specified using the "other protein (E & MW)" setting.
at 4 °C for 24 hours. For the negative control, an equivalent volume of DMSO was added to the
protein solution. To quench the reaction, 0.1% formic acid in the double-distilled water (ddH₂O)
was added in a 1:10 ratio (v/v), followed by desalting of the samples using C8 stage tips with the
MS data acquisition was carried out on a Time-of-Flight (TOF)
LC/MS system (Agilent 6200 series) equipped with a positive electrospray ionization (ESI) source.
A volume of 5 µL of the desalted sample was injected for mass spectrometry (MS) analysis. To
prevent cross-sample contamination, blank injections were run between each sample. Data were
deconvoluted and analyzed using Agilent’s MassHunter Bioconfirm software, applying a scan
range of 600–2000 m/z, a mass range of 10–100 kDa, a mass step of 1 Da, and a baseline
at room temperature for 3 hours. For the negative control, an equivalent volume of DMSO was
added to the protein solution. To quench the reaction, 0.1% formic acid in the double -distilled
water (ddH₂O) was added in a 1:10 ratio (v/v), followed by desalting of the samples using C8 stage
The UHPLC-system consisted of an Agilent
(G1316C) and a valve drive (G1170A) equipped with a 2-pos 6-port valve for online desalting of the
samples. Mobile phase A (water + 0.1 % (v/v) formic acid) and mobile phase B (acetonitrile + 0.1
% (v/v) formic acid) were used for gradient elution on a BIOshell Protein C4 HPLC column (5 cm x
2.1 mm, 3.4 μm, 400 Å; Merck, Darmstadt, Germany). The flow rate was set to 1.0 mL/min with
the following gradient settings: 0−0.2 min: 10 % B, 0.2−2.2 min: 10−80 % B, 2.2−3 min: 80 % B,
whole analysis. The UHPLC-system was coupled to a TripleTOF 5600+ mass spectrometer from
Sciex (Darmstadt, Germany) using a Duospray ion source in positiveionization mode and the
following source and MS parameters: curtain gas (CUR): 30 psi, nebulizing gas (GS1): 50 psi,
heater gas (GS2): 40 psi, ion spray floating voltage (ISVF): 5500 V, source temperature (TEM): 450
°C, collision energy (CE): 30 V, declustering potential (DP): 230 V. The acquisition was performed
in the TOF mode of the mass spectrometer using a mass range from 100 to 5000 m/z with an
accumulation time of 100 ms. Moreover, the IntactProteinMode -script from Sciex was used to
optimize MS settings for protein analysis. The Analyst TF 1.8.1 software and the PeakView
software 2.2.0 (both Sciex) were used for data acquisition and data analysis, respectively. Mass
spectra were deconvoluted using the BioToolKit 2.2.0 software package.
Relative quantification was performed with the area under curve (AUC) of each protein species in
the deconvoluted mass spectra with the PeakView software’s integration tool.
𝑅𝑎𝑡𝑖𝑜 [%] = 𝐴𝑈𝐶[𝑚𝑜𝑑] × 100

Data set [4] addresses T2, MK2. The data set is described as follows: kinact/KI from time- and concentration-dependent intact protein MS.
Method: Determination of Kinetic Parameters
kinact/KI was measured based on time- and concentration-dependent analysis of intact protein
mass spectra using the bimolecular model described by the equations seen below, as reported
[PI]: concentration of the protein-compound complex, [PI*]: concentration
of the covalent protein-compound complex, [PI*] ≈ [PI] if kinact is relatively high. [P]0, [I]0:
concentration of initial protein and compound. t: incubation time(s).
When reaching each time point of incubation
(15 min, 30 min, 60 min, 120 min, 180 min), an aliquot of the reaction mixture was transferred into
1 % formic acid in ddH2O using a multichannel pipette (10 µL of sample added to 90 µL
ddH2O/1% formic acid), to stop the reaction at the exact time point. MS was performed and %
occupancy was calculated in the same way (see equations below).
time- and concentration -dependent % occupancy: import data as XY table. A nonlinear
regression fit was chosen to fit the curves, kinact/KI was set up as the constraint type of “Shared
value for all datasets”, initial value as 0, the rest settings are as default.
𝑂𝑐𝑐𝑢𝑝𝑎𝑛𝑐𝑦 [%] = 𝐼𝑚𝑜𝑑 × 100
[𝑃𝐼 ] = [𝑃]0[𝐼]0 ([𝑃] −[𝐼] )×𝑘 /𝐾 ×𝑡
𝑂𝑐𝑐𝑢𝑝𝑎𝑛𝑐𝑦 [%] = [𝑃𝐼] × 100
The target of data set [5] is MK2 (Homo sapiens, UniProt P49137). The data set is described as follows: biochemical.
MK2 (Homo sapiens, UniProt P49137), sequence (P49137 whole entry): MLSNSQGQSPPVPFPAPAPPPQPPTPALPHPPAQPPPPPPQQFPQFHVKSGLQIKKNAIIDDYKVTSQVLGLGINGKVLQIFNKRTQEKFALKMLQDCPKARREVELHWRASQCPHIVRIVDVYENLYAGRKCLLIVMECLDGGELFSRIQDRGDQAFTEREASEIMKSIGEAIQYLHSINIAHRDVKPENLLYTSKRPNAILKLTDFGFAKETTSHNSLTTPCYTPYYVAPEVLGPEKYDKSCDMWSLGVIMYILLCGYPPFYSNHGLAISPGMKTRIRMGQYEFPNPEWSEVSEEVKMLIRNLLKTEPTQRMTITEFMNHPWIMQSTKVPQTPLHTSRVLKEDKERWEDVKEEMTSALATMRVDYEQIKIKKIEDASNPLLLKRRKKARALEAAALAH
The target of data set [6] is T1, JAK3. The data set is described as follows: biochemical.
The test system of data set [7] is MK2. The arrangement: method as in PMID 24900358. Conditions: @100 μM ATP; cited from earlier work.
Data set [8] in a line: buffer stability at pH 7.4 (HPLC). The format is physicochemical. As to conditions: pH 7.4, over the incubation time.

The kinact/KI is the maximal inactivation rate divided by the concentration that gives half of it. As usually defined, the IC50 is the point on the concentration scale where inhibition reaches its midpoint.

With `O=c1c2cc(OS(=O)(=O)F)ccc2c2cnc3[nH]ccc3c2n1C1CCCCC1` [compound 35], the solubility entry in data set [1] is reported as “low solubility”. The inhibitory activity result in data set [2] is listed as “no relevant inhibitory activity”. In the case of `O=C(c1ccc(-c2ccc(Cl)cc2)o1)N(Cc1ccccn1)c1ccc(N2CCNCC2)c(OS(=O)(=O)F)c1` [compound 43], the “covalent modification of MK2 (covalent binding)” value (from here on “covalent modification of MK2”) in data set [3] is reported as “no binding at all”. Consider `O=C(c1ccc(-c2ccc(Cl)c(OS(=O)(=O)F)c2)o1)N(Cc1ccccn1)c1ccc(N2CCNCC2)cc1` [compound 42], for which, in data set [3], the “Ratio [%] (AUC[mod]/(AUC[unmod]+AUC[mod]))” value was determined as 94.28% and the “covalent modification of MK2” value was determined as 95%. Further, the inactivation efficiency (kinact/KI) in data set [4] is 1.12 M⁻¹ s⁻¹. With `O=C(c1ccc(-c2ccc(Cl)c(O)c2)o1)N(Cc1ccccn1)c1ccc(N2CCNCC2)cc1` [compound 66], the concentration for half-maximal inhibition (IC50) in data set [5] is over 5 µM.

`N#Cc1cccc(-c2cn(C3CCCCC3)c3c2cnc2[nH]ccc23)c1` [compound 6] registered an IC50 in data set [6] of 5.2 nM. As to `O=C(c1ccc(-c2ccc(Cl)cc2)o1)N(Cc1ccccn1)c1ccc(N2CCNCC2)cc1` [compound 41, reference compound], the values for the IC50 in data set [7] and in data set [5] were 110 nM and over 5 µM, respectively.

Take `CC(C)(C)OC(=O)N1CCN(c2ccc(NC(=O)c3ccc(-c4ccc(Cl)cc4)o3)cc2S(=O)(=O)F)CC1` [compound 64]: in data set [8], the buffer stability result was “some degradation”. Moreover, the “covalent modification of MK2” value in data set [3] was 15%. `O=C(c1ccc(-c2ccc(Cl)cc2)o1)N(Cc1ccccn1)c1ccc(N2CCNCC2)c(S(=O)(=O)F)c1` [compound 65]: in data set [3], the “Ratio [%] (AUC[mod]/(AUC[unmod]+AUC[mod]))” value amounted to 14.51% and the “covalent modification of MK2” value is given as 15%.

Regarding `O=C(c1ccc(-c2ccc(Cl)cc2)o1)N(Cc1ccccn1)c1ccc(N2CCNCC2)c(O)c1` [compound 67], in data set [5], the half-maximal inhibitory concentration (IC50) is over 5 µM.
